The source of these data is patent US20060073530A1 (priority 2001, published 2006).

Where “and” joins values, the source holds several entries; their conditions need not be identical. Equal entries are not always repeated. Entries after “also recorded” stand apart in the source; their conditions may differ. Where two headings read alike, the source gives them in different places.

The target of test [1] is sortase (cleavage of sorting signals at the LPXTG motif) (Staphylococcus aureus, UniProt Q2FV99). In kind it is cell-based, S. aureus OS2.
In test [2] the test system is cell wall sorting of Seb-Spa490-524. In kind it is cell-based, S. aureus OS2.
For test [3], the system named is staphylococci. Briefly: Growth of staphylococci in the presence of antibiotics. In kind it is cell-based, S. aureus OS2.
For test [4], the target named is SrtADN (Staphylococcus aureus, UniProt Q2FV99). In kind it is biochemical, S. aureus.
Test [5] deals with SrtBΔN (Staphylococcus aureus, UniProt Q2FZE3, E55A/N120I/R216K). In kind it is biochemical, S. aureus. The conditions noted are these: for SrtBΔN cleavage of NPQTN peptides: incubation of purified enzyme with inhibitor.
The test system of test [6] is surface protein SEB-SPA490-524 (sortase acyl-enzyme intermediates). In kind it is cell-based, S. aureus.
Test [7] has as its system surface protein SEB-MH6-CWS. In kind it is cell-based, S. aureus OS2 and BB270.
In test [8] the target is sortase (Staphylococcus aureus, UniProt Q2FV99). In kind it is biochemical, staphylococcal.
Test [9] concerns staphylococci. In kind it is cell-based, S. aureus OS2.
Test [10] has as its system Sec-dependent export of P1 precursor (SecA). In kind it is cell-based, S. aureus OS2.
Test [11] has as its system bacterial cell wall synthesis. In kind it is cell-based, S. aureus.

Consider `CCN1C(=O)C=CC1=O` [N-ethylmaleimide], for which the “cleavage of sorting signals at the LPXTG motif (cell wall sorting reaction)” value (“cleavage of sorting signals” below) in test [1] is listed as “did not”.

Take `NC(=O)CI` [iodoacetamide]: the “cleavage of sorting signals” value in test [1] was “did not”.

With `OCCS` [mercaptoethanol], the “cleavage of sorting signals” value in [1] is “did not affect the sorting reaction”.

Turning to moenomycin, the “rate of cell wall sorting (P2 precursor accumulation)” value (“rate of cell wall sorting” below) in test [2] is on record as “similar, albeit weaker effect”. For the same molecule, in [3] (10 μg/ml antibiotic, compared to mock treated control), the “growth rate of staphylococci” value is “reduced the growth rate”.

As for `O=C(O)c1cc[c]([Hg][OH])cc1` [pHMB, p-hydroxymercuribenzoic acid], in test [1], the “cleavage of sorting signals” value was “chemical inhibitors of the sorting reaction; also recorded: displayed an inhibitory effect”. Also, the “SrtAΔN cleavage of LPXTG containing peptides” value in [4] (incubation of purified enzyme with inhibitor) is recorded as “inhibited”. Besides, the “SrtBΔN cleavage of NPQTN peptides” value in test [5] was “inhibited”.

On to `CSS(C)(=O)=O` [methylmethane thiosulfonate], for which the “peptide bond hydrolysis / cleavage of LPETG peptide” value in [4] (SrtA DN, absence of the peptidoglycan substrate) is reported as “inhibited”.

For the molecule `NO` [NH2OH, hydroxylamine], in test [6], the “amounts of released surface proteins” value is reported as “increased amounts of released surface proteins”; the “surface proteins released into the extra-cellular medium” value is 16.9% and 12.7%. Further, in test [7], the “release of SEB-MH6-CWS” value is given as “caused the release of SEB-MH6-CWS”. In test [8] (0.1 M NH2OH added to staphylococcal extracts), the “fluorescence intensity (LPXTG peptide cleavage)” value is “forty fold increase in fluorescence intensity”.

For `O=C(O)CN(CCN(CC(=O)O)CC(=O)O)CC(=O)O` [EDTA], in test [1], the “cleavage of sorting signals” value is listed as “Neither PMSF, which reacts with hydroxyl (Creighton, 1993), nor treatment with the divalent cation chelator EDTA interfered with cell wall sorting”.

As to `CC1(C)S[C@@H]2[C@H](NC(=O)Cc3ccccc3)C(=O)N2[C@H]1C(=O)O` [penicillin, penicillin G], in [2], the “rate of cell wall sorting” value is given as “did not alter the rate of cell wall sorting”. In test [3], the “growth rate of staphylococci” value is recorded as “reduced the growth rate”.

As for `C[N+](C)(C)CCSS(C)(=O)=O` [MTSET, [2-(trimethylammonium)ethyl]methanethiosulfonate], the “incorporation of [35S]methionine by staphylococci” value in test [9] was “prevented incorporation”. Moreover, in test [1], the “cleavage of sorting signals” value is recorded as “sensitive; also recorded: interfered with the cleavage of sorting signals at the LPXTG motif”. The “hydroxylaminolysis of LPXTG peptide by SrtADN” value in test [4] (pre-incubation with MTSET) is recorded as “abolished all enzymatic activity”. For the same molecule, the “SrtBΔN cleavage of NPQTN peptides” value in [5] is reported as “inhibited”. The “Sec-dependent export of P1 precursor” value in [10] is on record as “remained unaltered”. Also, the “hydroxylaminolysis of LPXTG peptide” value in [8] (pre-incubation of staphylococcal extracts with MTSET) was “inhibited”.

`O[C@H](CS)[C@H](O)CS` (racemic) [dithiothreitol]: the “cleavage of sorting signals” value in [1] was “did not affect the sorting reaction”. In test [4] (MTSET-inactivated SrtADN incubated with 10 mM DTT), the “LPXTG peptide cleavage activity restored” value was found to be 80%. Further, the “SrtB-mediated cleavage of NPQTN peptide” value in test [5] (addition of DTT, even in the presence of MTSET) was “greatly stimulated SrtB-mediated cleavage”.

For `CS(=O)(=O)SCCS(=O)(=O)[O-].[Na+]` [MTSES], the “cleavage of sorting signals” value in [1] was “interfered with sorting albeit not as effectively as MTSET”.

Consider `O=S(=O)(F)Cc1ccccc1` [PMSF], for which, in test [1], the “cleavage of sorting signals” value is reported as “Neither PMSF, which reacts with hydroxyl (Creighton, 1993), nor treatment with the divalent cation chelator EDTA interfered with cell wall sorting”.

Consider `CN[C@H](CC(C)C)C(=O)N[C@H]1C(=O)N[C@@H](CC(N)=O)C(=O)N[C@H]2C(=O)N[C@H]3C(=O)N[C@H](C(=O)N[C@H](C(=O)O)c4cc(O)cc(O)c4-c4cc3ccc4O)[C@H](O)c3ccc(c(Cl)c3)Oc3cc2cc(c3O[C@@H]2O[C@H](CO)[C@@H](O)[C@H](O)[C@H]2O[C@H]2C[C@](C)(N)[C@H](O)[C@H](C)O2)Oc2ccc(cc2Cl)[C@H]1O` [vancomycin], for which the “rate of cell wall sorting” value in [2] is on record as “steady accumulation of P2 precursor”. For the same molecule, the “growth rate of staphylococci” value in [3] is reported as “reduced the growth rate”. Also, in test [11], the “inhibition of cell wall synthesis” value came out at 20 fold and the “ratio of incorporated [3H]lysine/[3H]leucine” value worked out at 1.5.

Consider `O=C(O)CI` [iodoacetate], for which the “cleavage of sorting signals” value in [1] is recorded as “did not”.
